This note sets out measurements from PubChem BioAssay (NCI).

Values joined by “and” are separate entries in the source; they are usually repeats but may differ in a detail not shown here. Equal entries are not always repeated.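 Following 48 hours of exposure in 96-well plates, responses at five concentrations were used to interpolate endpoints linearly. GI50: concentration for 50% inhibition of growth. Definition used: TGI = concentration required for complete inhibition of growth.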 A value given as a limit tells only on which side of the number the result lay.

Some test systems named below: A549 NSCLC; HCT-15 colon; HS 578T breast; CCRF-CEM leukemia; TK-10 renal; BT-549 breast; MALME-3M melanoma; CAKI-1 renal; SF-539 CNS; UACC-257 melanoma.
Holding throughout (experiment): NCI anticancer screen, dose series, 48 h

As for `CN(C)c1ccc(C(=N)c2ccc(N(C)C)cc2)cc1`, the GI50 is 5.1 µM and 3.95 µM in the experiment on A549 NSCLC; 2.56 µM and 2.6 µM in the experiment with HCT-15 colon; 1.73 µM and 4.1 µM in the experiment with HS 578T breast; 5.33 µM with CCRF-CEM leukemia; 4.47 µM and 7.22 µM in the experiment with TK-10 renal; 3.77 µM and 5.1 µM in the experiment with BT-549 breast. Also, the GI50 was 3.04 µM and 9.7 µM in the experiment with MALME-3M melanoma; 1.62 µM and 3.57 µM with CAKI-1 renal; 2.88 µM and 3.5 µM in the experiment with SF-539 CNS; 6.56 µM and 4.76 µM with UACC-257 melanoma. Also, the TGI is 36.7 µM and > 100 µM in the experiment with A549 NSCLC; greater than 100 µM in the experiment on HCT-15 colon; 7.64 µM and 59.3 µM in the experiment on HS 578T breast; 64.5 µM in the experiment with CCRF-CEM leukemia; 38.9 µM and 91.6 µM in the experiment on TK-10 renal; 28.9 µM and 29.2 µM with BT-549 breast. In addition, the TGI in the experiment with MALME-3M melanoma was 28.8 µM and 62.2 µM; with CAKI-1 renal, 14.6 µM and 68.5 µM; in the experiment on SF-539 CNS, 11.5 µM and 25.7 µM; with UACC-257 melanoma it was 30.8 µM and 32.6 µM.

With `O=C1/C(=C/c2ccc(F)c(F)c2)CN(C(=O)C(Cl)Cl)C/C1=C\c1ccc(F)c(F)c1`, the GI50 is 0.262 µM in the experiment with A549 NSCLC; 0.0303 µM with HCT-15 colon; 0.261 µM with HS 578T breast; 0.0266 µM with CCRF-CEM leukemia; 0.258 µM with TK-10 renal; 0.0837 µM in the experiment with BT-549 breast. Moreover, the GI50 in the experiment with MALME-3M melanoma is 0.199 µM; in the experiment on CAKI-1 renal, 0.188 µM; with SF-539 CNS, 0.094 µM; in the experiment with UACC-257 melanoma, 0.259 µM. For the same compound, the TGI is 1.09 µM in the experiment on A549 NSCLC; 0.164 µM in the experiment with HCT-15 colon; 1.01 µM in the experiment on HS 578T breast; greater than 100 µM in the experiment on CCRF-CEM leukemia; 0.84 µM in the experiment with TK-10 renal; 0.34 µM in the experiment with BT-549 breast. The TGI with MALME-3M melanoma was 0.539 µM; in the experiment with CAKI-1 renal, 0.551 µM; in the experiment with SF-539 CNS it was 0.276 µM; in the experiment with UACC-257 melanoma it was 0.888 µM.

With `CC(=O)O[C@@]12CO[C@@H]1C[C@H](O)[C@@]1(C)C(=O)[C@H](O)C3=C(C)[C@@H](OC(=O)[C@H](O)[C@@H](NC(=O)OC(C)(C)C)c4ccccc4)C[C@@](O)([C@@H](OC(=O)c4ccccc4)C12)C3(C)C` (stereo partly drawn), the GI50 in the experiment on A549 NSCLC was less than 0.005 µM; in the experiment with HCT-15 colon it was 0.0441 µM and 0.327 µM; in the experiment on HS 578T breast it was less than 0.005 µM; in the experiment on CCRF-CEM leukemia it was less than 0.005 µM; in the experiment with MALME-3M melanoma, 11.3 µM; with CAKI-1 renal, 0.225 µM and 0.181 µM. The GI50 with SF-539 CNS was less than 0.005 µM; in the experiment on UACC-257 melanoma, 32.3 µM. For the same compound, the TGI in the experiment on A549 NSCLC was 50 µM and > 100 µM; in the experiment on HCT-15 colon, 50 µM and > 100 µM; in the experiment on HS 578T breast it was 23.5 µM and > 100 µM; in the experiment on CCRF-CEM leukemia it was 29.3 µM and 60.8 µM; with TK-10 renal it was 12.1 µM and > 100 µM; in the experiment with BT-549 breast, 0.0338 µM. For the same compound, the TGI in the experiment on MALME-3M melanoma was 29.6 µM; in the experiment with CAKI-1 renal, 50 µM and 73.6 µM; in the experiment with SF-539 CNS, 19.3 µM and 22.9 µM; in the experiment on UACC-257 melanoma it was greater than 100 µM.

For the compound `Oc1[nH]c(N=C2N=c3ccccc3=N2)c2ccccc12`, the GI50 in the experiment on A549 NSCLC is 8.67 µM; with HCT-15 colon it was 3.54 µM; in the experiment with HS 578T breast it was 10.7 µM; with CCRF-CEM leukemia, 1.48 µM; in the experiment with TK-10 renal, 21 µM; in the experiment with BT-549 breast it was 16.7 µM. For the same compound, the GI50 is 9.69 µM in the experiment with MALME-3M melanoma, 2.95 µM in the experiment with CAKI-1 renal, 14.3 µM with SF-539 CNS and 13.7 µM in the experiment on UACC-257 melanoma. Further, the TGI was 41.1 µM in the experiment with A549 NSCLC; greater than 100 µM in the experiment on HCT-15 colon; 39.8 µM in the experiment on HS 578T breast; 27.8 µM in the experiment with CCRF-CEM leukemia; 55.4 µM in the experiment with TK-10 renal; 54.5 µM with BT-549 breast. Also, the TGI with MALME-3M melanoma is 37.6 µM; with CAKI-1 renal it was 21.7 µM; in the experiment with SF-539 CNS it was 40.2 µM; with UACC-257 melanoma it was greater than 100 µM.

On to `C=C1C(=O)O[C@H]2[C@H]1CC/C(Cn1cc(Cc3c[nH]c4ccccc34)nn1)=C\CC[C@@]1(C)O[C@@H]21`, for which the GI50 with A549 NSCLC is 8.63 µM; in the experiment with HCT-15 colon, 1.59 µM; in the experiment on HS 578T breast, 3.88 µM; in the experiment with CCRF-CEM leukemia it was 0.718 µM; with TK-10 renal, 1.82 µM; in the experiment on BT-549 breast, 1.41 µM. Also, the GI50 in the experiment on MALME-3M melanoma is 1.63 µM; in the experiment with CAKI-1 renal, 1.3 µM; with SF-539 CNS it was 1.76 µM; in the experiment with UACC-257 melanoma, 2.11 µM. The TGI in the experiment on A549 NSCLC came to 23.5 µM; in the experiment on HCT-15 colon, 3.35 µM; with HS 578T breast, 18.3 µM; with CCRF-CEM leukemia, 5.92 µM; in the experiment with TK-10 renal, 3.4 µM; with BT-549 breast, 2.76 µM. The TGI was determined as 3.07 µM in the experiment with MALME-3M melanoma, 2.64 µM in the experiment on CAKI-1 renal, 3.35 µM in the experiment with SF-539 CNS and 4.45 µM in the experiment with UACC-257 melanoma.

Take `CCC#CC[C@H](O)C/C=C1/C(=O)C=C[C@@H]1C/C=C\CCCC(=O)OC`: the GI50 was 1.6 µM in the experiment on A549 NSCLC; 1.17 µM in the experiment with HCT-15 colon; 4.3 µM with HS 578T breast; 0.413 µM in the experiment with CCRF-CEM leukemia; 1.66 µM in the experiment on TK-10 renal; 1.22 µM with BT-549 breast. The GI50 with MALME-3M melanoma was 1.88 µM; with CAKI-1 renal it was 1.48 µM; in the experiment with SF-539 CNS it was 1.31 µM; in the experiment with UACC-257 melanoma, 0.856 µM. Moreover, the TGI with A549 NSCLC came out at 5.52 µM; in the experiment with HCT-15 colon, 5.09 µM; in the experiment on HS 578T breast it was 46.6 µM; with CCRF-CEM leukemia it was 5.66 µM; in the experiment with TK-10 renal it was 3.97 µM; in the experiment with BT-549 breast, 3.04 µM. The TGI in the experiment on MALME-3M melanoma came to 8.42 µM; with CAKI-1 renal it was 4.65 µM; with SF-539 CNS, 3.79 µM; in the experiment with UACC-257 melanoma, 2.43 µM.

As to `Cc1cc(C(=O)Nc2cc(Oc3ccc4nc(NC(=O)C5CC5)cn4n3)ccc2C)n(C)n1`, the GI50 in the experiment on A549 NSCLC was greater than 10 µM; in the experiment on HCT-15 colon, 6.49 µM; in the experiment on HS 578T breast it was 7.48 µM; with CCRF-CEM leukemia, greater than 10 µM; in the experiment with TK-10 renal, greater than 10 µM; with BT-549 breast, 6.42 µM. For the same compound, the GI50 is greater than 10 µM with MALME-3M melanoma, greater than 10 µM in the experiment on CAKI-1 renal, 3.35 µM in the experiment on SF-539 CNS and greater than 10 µM with UACC-257 melanoma. Besides, the TGI in the experiment on A549 NSCLC, in the experiment on HCT-15 colon, in the experiment with HS 578T breast, in the experiment with CCRF-CEM leukemia, in the experiment with TK-10 renal and in the experiment on BT-549 breast was greater than 10 µM in each case. In addition, the TGI in the experiment on MALME-3M melanoma, in the experiment with CAKI-1 renal, with SF-539 CNS and in the experiment with UACC-257 melanoma was greater than 10 µM throughout.
